Assays:
Hep3B cell = experiment: Determination of Hep3B cell inhibitory activity (Cell Titer-Glo, 72 h); assay type: cell-based; conditions: Hep3B cells, 72 h incubation, Cell Titer-Glo (CTG) method
From the text: 2. Determination of Hep3B Cell Inhibitory Activity of Target Compound

FGFR4 = target: T1, FGFR4 (Homo sapiens, UniProt P22455); experiment: Determination of FGFR4 inhibitory activity by fluorescence resonance energy transfer (FRET) method; assay type: biochemical; conditions: FGFR4 from purchased kit, read-out: In vitro FGFR4 kinase inhibitory activity IC50
T1 construct: purchased
T1 sequence (P22455 22-802): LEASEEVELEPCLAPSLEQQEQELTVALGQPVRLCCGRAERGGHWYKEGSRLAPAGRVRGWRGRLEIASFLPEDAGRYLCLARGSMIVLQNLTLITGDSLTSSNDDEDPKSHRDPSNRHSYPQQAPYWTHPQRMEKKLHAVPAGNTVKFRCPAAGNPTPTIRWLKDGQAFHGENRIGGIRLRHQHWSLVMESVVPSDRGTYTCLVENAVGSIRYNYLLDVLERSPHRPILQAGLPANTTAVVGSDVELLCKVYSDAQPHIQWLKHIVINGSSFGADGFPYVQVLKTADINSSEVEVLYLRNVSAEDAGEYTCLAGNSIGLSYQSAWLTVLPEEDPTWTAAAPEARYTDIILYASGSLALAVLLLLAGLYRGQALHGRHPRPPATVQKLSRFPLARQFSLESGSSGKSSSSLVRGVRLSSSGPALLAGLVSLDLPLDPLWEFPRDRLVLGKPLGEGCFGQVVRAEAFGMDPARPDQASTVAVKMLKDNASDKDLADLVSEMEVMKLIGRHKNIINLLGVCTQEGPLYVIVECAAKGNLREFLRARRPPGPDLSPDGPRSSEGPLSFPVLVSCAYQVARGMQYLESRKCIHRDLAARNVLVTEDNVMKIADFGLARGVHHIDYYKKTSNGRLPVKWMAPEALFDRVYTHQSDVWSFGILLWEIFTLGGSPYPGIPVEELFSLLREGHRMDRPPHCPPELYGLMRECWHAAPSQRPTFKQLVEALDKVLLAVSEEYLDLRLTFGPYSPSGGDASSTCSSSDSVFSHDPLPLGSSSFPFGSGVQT
From the text: 1. Determination of FGFR4 Inhibitory Activity of Target Compound
FGFR4 is obtained by direct purchase of a kit.

IC50 (FGFR4) | IC50 (Hep3B cell; Homo sapiens) | Molecule | IC50 (Hep3B cell)
 | 174 nM | C=CC(=O)Nc1cccc(C)c1Nc1ncc2cc(-c3c(Cl)c(OC)cc(OC)c3Cl)ccc2n1 [Blu9931, reference compound] | 
< 5 nM | < 100 nM | C=CS(=O)(=O)N1CC=C(c2cc3c(Oc4ccc(NC(=O)NC5CC5)c(Cl)c4)ccnc3cc2OC)CC1 [Compound I-3, 4-[3-chloro-4-(cyclopropylaminocarbonyl)aminophenoxyl]-6-[(1-ethylenesulfonyl-1,2,3,6-tetrahydropyridine)-4-yl]-7-methoxyquinoline] | 
< 5 nM | < 100 nM | C=CC(=O)N1CC=C(c2cc3c(Oc4ccc(NC(=O)C5CCCC5)c(Cl)c4)ccnc3cc2OC)CC1 [Compound I-6] | 
< 5 nM | < 100 nM | C=CC(=O)N1CC=C(c2cc3c(Oc4ccc(NC(=O)NC5CC5)c(Cl)c4)ccnc3cc2OCc2ccccc2)CC1 [Compound I-10] | 
< 2 nM | < 50 nM | C=CC(=O)N1CC=C(c2cc3c(Oc4ccc(NC(=O)NC5CC5)c(Cl)c4)ccnc3cc2OC(C)C)CC1 [Compound I-11, 4-[3-chloro-4-(cyclopropylaminocarbonyl)aminophenoxy]-6-[(1-acryloyl-1,2,3,6-tetrahydropyridine)-4-yl]-7-isopropylquinoline] | 
< 5 nM | < 100 nM | C=CC(=O)N1CC=C(c2cc3c(Oc4ccc(NC(=O)NC5CC5)c(Cl)c4)ccnc3cc2OC2CCCC2)CC1 [Compound I-12] | 
< 5 nM | < 100 nM | C=CC(=O)N1CC=C(c2cc3c(Oc4ccc(NC(=O)NC5CC5)c(Cl)c4)ccnc3cc2OCCN2CCOCC2)CC1 [Compound I-14] | 
 | < 50 nM | C=CC(=O)N1CC=C(c2cc3c(Oc4ccc(NC(=O)NC5CCCCC5)c(Cl)c4)ccnc3cc2OC)CC1 [Compound I-15, 4-[3-chloro-4-(cyclohexylaminocarbonyl)aminophenoxy]-6-[(1-acryloyl-1,2,3,6-tetrahydropyridine)-4-yl]-7-methoxyquinoline] | 
< 2 nM | < 50 nM | C=CC(=O)N1CC=C(c2cc3c(Oc4ccc(NC(=O)NC5CC5)c(F)c4)ccnc3cc2OC)CC1 [Compound I-19, 4-[3-fluoro-4-(cyclopropylaminocarbonyl)aminophenoxy]-6-[(1-acryloyl-1,2,3,6-tetrahydropyridine)-4-yl]-7-methoxyquinoline] | 
< 5 nM | < 500 nM | C=CC(=O)N1CC=C(c2cc3c(Oc4ccc(NC(=O)NC5CC5)cc4)ccnc3cc2OC)CC1 [Compound I-20, 4-[4-(cyclopropylaminocarbonyl)aminophenoxy]-6-[(1-acryloyl-1,2,3,6-tetrahydropyridine)-4-yl]-7-methoxyquinoline] | 
< 5 nM | < 500 nM | C=CC(=O)N1CCC=C(c2cc3c(Oc4ccc(NC(=O)NC5CC5)c(Cl)c4)ccnc3cc2OC)C1 [Compound I-21, 4-[3-chloro-4-(cyclopropylaminocarbonyl)aminophenoxy]-6-[(1-acryloyl-1,2,5,6-tetrahydropyridine)-3-yl]-7-methoxyquinoline] | 
< 5 nM | < 100 nM | C=CC(=O)N1CC=C(c2cc3c(Oc4ccc(NC(=O)NC5CC5)c(Cl)c4)ccnc3cc2OC)C1 [Compound I-22, 4-[3-chloro-4-(cyclopropylaminocarbonyl)aminophenoxy]-6-[(1-acryloyl-2,5-dihydropyrrole)-3-yl]-7-methoxyquinoline] | 
< 5 nM | < 500 nM | C=CC(=O)N1CCC(c2cc3c(Oc4ccc(NC(=O)NC5CC5)c(Cl)c4)ccnc3cc2OC)C1 (centres unmarked) [Compound I-23, 4-[3-chloro-4-(cyclopropylaminocarbonyl)aminophenoxy]-6-[(1-acryloyl-tetrahydropyrrole)-3-yl]-7-methoxyquinoline] | 
< 2 nM | < 50 nM | C=CC(=O)N1CC=C(c2cc3c(Oc4ccc(C(=O)NC5CC5)c(Cl)c4)ccnc3cc2OC)CC1 [Compound I-24, 4-[3-chloro-4-(cyclopropylamino)carbonylphenoxy]-6-[(1-acryloyl-1,2,3,6-tetrahydropyridine)-4-yl]-7-methoxyquinoline] | 
< 5 nM | < 500 nM | C=CC(=O)N1CC=C(c2cc3c(Nc4ccc(NC(=O)NC5CC5)c(Cl)c4)ccnc3cc2OC)CC1 [Compound I-26, 4-[3-chloro-4-(cyclopropylaminocarbonyl)aminophenylamino]-6-[(1-acryloyl-1,2,3,6-tetrahydropyridine)-4-yl]-7-methoxyquinoline] | 

Second part, the molecule before the results:

Molecule | IC50 (FGFR4) | IC50 (Hep3B cell; Homo sapiens) | IC50 (Hep3B cell)
4-[2,6-dichloro-4-(cyclopropylaminocarbonyDaminobenzeneamino]-6-[(1-acryloyl-1,2,3,6-tetrahydropyridine)-4-yl]-7-methoxyquinoline [Compound I-27] | < 5 nM |  | < 500 nM
4-[3-chloro-4-(cyclopentylaminocarbonyl)aminophenoxy]-6-[(1-acryloyl-1,2,3,6-tetrahydropyridine)-4-yl]1-7-methoxyquinoline [Compound I-9] | < 5 nM |  | < 100 nM
4-[3-chloro-4-(cyclopropylaminocarbonyl)aminophenoxy]-6-[(1-acryloyl-1,2,3,6-tetrahydropyridine)-4-yl]-7-ethylquinoline [Compound I-13] | < 2 nM |  | < 50 nM
4-[3-chloro-4-(cyclopropylaminocarbonyl)aminophenoxy]-6-[(1-acryloyl-1,2,3,6-tetrahydropyridine)-4-yl]-7-methoxyquinoline [Compound I-1] | < 2 nM |  | < 50 nM
4-[3-chloro-4-(cyclopropylaminocarbonyl)aminophenoxy]-6-[(1-acryloyl-piperidine)-4-yl]-7-methoxyquinoline [Compound I-8] | < 2 nM |  | < 50 nM
4-[3-chloro-4-(cyclopropylaminocarbonyl)aminophenoxy]-6-[(1-chloroyl-1,2,3,6-tetrahydropyridine)-4-yl]-7-methoxyquinoline [Compound I-4] | < 5 nM |  | < 100 nM
4-[3-chloro-4-(cyclopropylaminocarbonyl)aminophenoxy]-6-[(1-diethylphosphorylacetyl-1,2,3,6-tetrahydropyridine)-4-yl]-7-methoxyquinoline [Compound I-2] | < 5 nM |  | < 100 nM
4-[3-chloro-4-cyclohexanecarbonylaminophenoxy]-6-[(1-chloroyl-1,2,3,6-tetrahydropyridine)-4-yl]-7-methoxyquinoline [Compound I-7] | < 2 nM |  | < 50 nM
4-[3-chloro-4-cyclopropanecarboxylaminophenoxy]-6-[(1-chloroyl-1,2,3,6-tetrahydropyridine)-4 -yl]-7-methoxyquinoline [Compound I-5] | < 5 nM |  | < 100 nM
C=CC(=O)N1CC=C(c2cc3c(Oc4ccc(NC(=O)NC(C)(C)C)c(Cl)c4)ccnc3cc2OC)CC1 [Compound I-16, 4-[3-chloro-4-(tert-butylaminocarbonyl)aminophenoxy]-6-[(1-acryloyl-1,2,3,6-tetrahydropyridine)-4-yl]-7-methoxyquinoline] | < 5 nM | < 50 nM | 
C=CC(=O)N1CC=C(c2cc3c(Oc4ccc(NC(=O)Nc5ccccc5)c(Cl)c4)ccnc3cc2OC)CC1 [Compound I-17, 4-[3-chloro-4-(phenylaminocarbonyl)aminophenoxy]-6-[(1-acryloyl-1,2,3,6-tetrahydropyridine)-4-yl]-7-methoxyquinoline] | < 2 nM | < 50 nM | 
C=CC(=O)N1CC=C(c2cc3c(Oc4ccc(NC(=O)NC5CC5)cc4F)ccnc3cc2OC)CC1 [Compound I-18, 4-[2-fluoro-4-(cyclopropylaminocarbonyl)aminophenoxy]-6[(1-acryloyl-1,2,3,6-tetrahydropyridine)-4-yl]-7-methoxyquinoline] | < 5 nM |  | < 50 nM
C=CC(=O)N1CC=C(c2cc3c(Sc4ccc(NC(=O)NC5CC5)c(Cl)c4)ccnc3cc2OC)CC1 [Compound I-25, 4-[3-chloro-4-(cyclopropylaminocarbonyl)aminophenylmercapto]-6-[(1-acryloyl-1,2,3,6-tetrahydropyridine)-4-yl]-7-methoxyquinoline] | < 5 nM | < 100 nM | 
COc1cc2nccc(Oc3ccc(NC(=O)NC4CC4)c(Cl)c3)c2cc1C(N)=O [Lenvatinib, reference compound] | 43 nM | < 500 nM | 

— US20230014962A1, “Quinoline compound and use thereof” (SKYRUN PHARMA CO., LTD., priority 2019, published 2023)
